According to the supplement of paper PMC10307832:

How the values were obtained:
Assay in all cases: relative viability (nuclei count vs DMSO), 5 days (fraction); higher = more cells survive
[1] = compound: CC1=NN=C(O1)C2=NN=C(C=C2)N3CCC(CC3)OC4=C(C=CC(=C4)F)Cl + CC1(C)CCC(c2ccc(Cl)cc2)=C(CN2CCN(c3ccc(C(=O)NS(=O)(=O)c4ccc(N[C@H](CCN5CCOCC5)CSc5ccccc5)c(S(=O)(=O)C(F)(F)F)c4)cc3)CC2)C1 [Navitoclax] (partner 0.5 µM)
How it was run: (§1)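 Lung cancer cell lines were pin-tool dosed in 1536-well plates on the day after seeding, with either a lone drug or a fixed anchor-drug dose plus five library-drug doses (not always all listed) in √10 steps. Nuclei were counted on 4× images after 5 days. Relative viability is the ratio of treated-well to vehicle-well nuclei counts, with each value a median of duplicate plates.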

Tosedostat + Trametinib = compound: CC(C)C[C@@H](C(=O)N[C@H](C(=O)OC1CCCC1)c1ccccc1)[C@H](O)C(=O)NO [Tosedostat] + CC(=O)Nc1cccc(-n2c(=O)n(C3CC3)c(=O)c3c(Nc4ccc(I)cc4F)n(C)c(=O)c(C)c32)c1 [Trametinib] (partner 0.02 µM)
How it was run: as §1

Tosedostat + Phenformin = compound: CC(C)C[C@@H](C(=O)N[C@H](C(=O)OC1CCCC1)c1ccccc1)[C@H](O)C(=O)NO [Tosedostat] + N=C(N)NC(=N)NCCc1ccccc1 [Phenformin] (partner 250 µM)
How it was run: as §1

Tosedostat + Decitabine = compound: CC(C)C[C@@H](C(=O)N[C@H](C(=O)OC1CCCC1)c1ccccc1)[C@H](O)C(=O)NO [Tosedostat] + Nc1ncn([C@H]2C[C@H](O)[C@@H](CO)O2)c(=O)n1 [Decitabine] (partner 2 µM)
How it was run: as §1

Cell Line	relative viability ([1]; first compound 0.253 µM)	relative viability ([1]; first compound 0.8 µM)	relative viability ([1]; first compound 2.53 µM)	relative viability ([1]; first compound 8 µM)	relative viability (Tosedostat + Trametinib; first compound 0.02 µM)	relative viability (Tosedostat + Trametinib; first compound 0.06325 µM)	relative viability (Tosedostat + Trametinib; first compound 0.2 µM)	relative viability (Tosedostat + Trametinib; first compound 0.6325 µM)	relative viability (Tosedostat + Trametinib; first compound 2 µM)	relative viability (Tosedostat + Phenformin; first compound 0.02 µM)	relative viability (Tosedostat + Phenformin; first compound 0.06325 µM)	relative viability (Tosedostat + Phenformin; first compound 0.2 µM)	relative viability (Tosedostat + Phenformin; first compound 0.6325 µM)	relative viability (Tosedostat + Phenformin; first compound 2 µM)	relative viability (Tosedostat + Decitabine; first compound 0.02 µM)	relative viability (Tosedostat + Decitabine; first compound 0.06325 µM)	relative viability (Tosedostat + Decitabine; first compound 0.2 µM)	relative viability (Tosedostat + Decitabine; first compound 0.6325 µM)	relative viability (Tosedostat + Decitabine; first compound 2 µM)
NCI-H2347	0.643	0.533	0.62	0.532	0.297	0.295	0.33	0.262	0.321	0.384	0.439	0.55	0.267	0.275	0.64	0.609	0.667	0.444	0.542
NCI-H1651	0.809	0.783	0.782	0.717	0.777	0.789	0.897	0.869	0.742	0.324	0.328	0.293	0.267	0.306	0.683	0.63	0.501	0.523	0.503
NCI-H2009	0.667	0.671	0.614	0.54	0.248	0.325	0.321	0.293	0.276	0.562	0.477	0.477	0.468	0.419	0.379	0.377	0.404	0.433	0.329
ChaGo-K-1	0.678	0.624	0.632	0.622	0.903	0.862	0.895	0.867	0.645	0.435	0.522	0.487	0.412	0.359	0.487	0.526	0.543	0.463	0.419
PC-3 [JPC-3]	0.764	0.691	0.796	0.722	0.752	0.629	0.733	0.614	0.514	0.468	0.463	0.491	0.442	0.408	0.833	0.813	0.872	0.768	0.555
COR-L23	0.815	0.729	0.789	0.629	0.698	0.594	0.587	0.491	0.508	0.486	0.386	0.415	0.383	0.401	0.465	0.411	0.393	0.405	0.37
COR-L 105	0.686	0.846	0.622	0.727	0.493	0.431	0.422	0.476	0.369	0.517	0.465	0.447	0.399	0.363	0.747	0.622	0.681	0.537	0.596
